# Test results taken from the supplement of paper PMC11061612.
# Columns and labels:
# Assay in all cases: Bliss excess, mean over the matrix (fraction); higher = more synergy
# [1] = system: CHL-1 (Melanoma)
# How it was run: (§1)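 Cell lines grown in DMEM/F12 or RPMI with 10% FBS were plated in 1536-well plates and held 24 hours at 37°C, 5% CO2 before 72 hours of exposure to two-drug dose matrices, with DMSO typically at 0.2%. CellTiter-Glo 2.0 luminescence gave viability, which was converted to inhibition. Vehicle wells were set to 0 and blank wells to 1. Combination Emax is the second-highest inhibition in the matrix, and Bliss excess is the observed combination effect minus the expected EA + EB − EA·EB, where EA and EB are the single-agent effects.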
# [2] = system: CML-T1 (Chronic Myelogenous Leukemia)
# How it was run: as §1
# [3] = system: COLO-684 (Endometrial Carcinoma)
# How it was run: as §1
# [4] = system: Calu-6 (Non-Small Cell Lung Carcinoma)
# How it was run: as §1
# [5] = system: EB-3 (Burkitt's Lymphoma)
# How it was run: as §1
# [6] = system: FLO-1 (Esophageal Adenocarcinoma)
# How it was run: as §1
# [7] = system: HSC-3 (Oral Cavity Carcinoma)
# How it was run: as §1
# [8] = system: HuO-3N1 (Osteosarcoma)
# How it was run: as §1
# [9] = system: JHH-1 (Hepatocellular Carcinoma)
# How it was run: as §1
# [10] = system: KYM-1 (Rhabdomyosarcoma)
# How it was run: as §1
# [11] = system: KYSE-70 (Esophageal Squamous Cell Carcinoma)
# How it was run: as §1
# [12] = system: NCI-H1155 (Non-Small Cell Lung Carcinoma)
# How it was run: as §1
# [13] = system: NCI-H1623 (Lung Adenocarcinoma)
# How it was run: as §1
# [14] = system: NCI-H1755 (Lung Adenocarcinoma)
# How it was run: as §1
# [15] = system: NCI-H196 (Small Cell Lung Carcinoma)
# How it was run: as §1
# [16] = system: OV-90 (Ovarian Carcinoma)
# How it was run: as §1
# [17] = system: RL95-2 (Endometrial Carcinoma)
# How it was run: as §1
# [18] = system: RPMI-8866 (Chronic Myelogenous Leukemia)
# How it was run: as §1
# [19] = system: SJRH30 (Rhabdomyosarcoma)
# How it was run: as §1
# [20] = system: SK-MM-2 (Plasma Cell Myeloma)
# How it was run: as §1
Compound,Bliss excess [1],Bliss excess [2],Bliss excess [3],Bliss excess [4],Bliss excess [5],Bliss excess [6],Bliss excess [7],Bliss excess [8],Bliss excess [9],Bliss excess [10],Bliss excess [11],Bliss excess [12],Bliss excess [13],Bliss excess [14],Bliss excess [15],Bliss excess [16],Bliss excess [17],Bliss excess [18],Bliss excess [19],Bliss excess [20]
"Cc1c2c(nn1C)CSCc1cc(n(C)n1)CSc1cc(c3ccccc3c1)OCCCc1c(C(=O)O)n(C)c3c-2c(Cl)ccc13 [AZD5991] + CCN(CCO)CCCOc1ccc2c(Nc3cc(CC(=O)Nc4cccc(F)c4)[nH]n3)ncnc2c1 [AZD2811] (first compound max 1 µM, 7x7, partner max 1 µM)",0.114,0.0645,0.0271,-0.0096,-0.0197,0.0347,0.0617,0.0023,0.0603,0.0646,0.0651,0.0911,0.0711,0.0561,-0.029,0.0136,0.0272,0.149,0.0922,-0.0451
"C=CCn1c(=O)c2cnc(Nc3ccc(N4CCN(C)CC4)cc3)nc2n1-c1cccc(C(C)(C)O)n1 [AZD1775] + O=C(c1cc(Cc2n[nH]c(=O)c3ccccc23)ccc1F)N1CCN(C(=O)C2CC2)CC1 [Olaparib] (first compound max 1 µM, partner max 10 µM)",-0.0491,0.0213,-0.12,-0.0421,-0.0426,-0.0673,0.0013,-0.0835,-0.0244,0.0188,-0.0188,0.0355,-0.0233,-0.0291,-0.0552,-0.0424,-0.0372,-0.0528,-0.0057,-0.0471
"Cc1c2c(nn1C)CSCc1cc(n(C)n1)CSc1cc(c3ccccc3c1)OCCCc1c(C(=O)O)n(C)c3c-2c(Cl)ccc13 [AZD5991] + Cc1cc2ncnn2cc1Nc1ncc2c(n1)n(C1CCOCC1)c(=O)n2C [AZD7648] (first compound max 1 µM, 7x7, partner max 10 µM)",0.0317,-0.0205,0.0076,-0.0338,-0.0379,-0.0408,-0.0448,-0.0229,-0.0585,0.0136,0.0024,-0.017,0.0374,0.0189,-0.0431,-0.039,-0.0033,-0.0497,-0.0214,0.0087
"C[C@@H](c1ccc2nccn2c1)n1nnc2ncc(-c3cnn(C)c3)nc21 [Savolitinib] + CC1(C)CCC(CN2CCN(c3ccc(C(=O)NS(=O)(=O)c4ccc(NCC5CCOCC5)c([N+](=O)[O-])c4)c(Oc4cnc5[nH]ccc5c4)c3)CC2)=C(c2ccc(Cl)cc2)C1 [Venetoclax] (first compound max 1 µM, 7x7, partner max 1 µM)",-0.0511,-0.0156,-0.0458,-0.0539,-0.0614,-0.0752,-0.0383,-0.0708,-0.0529,-0.0133,-0.0504,-0.0365,-0.046,-0.05,-0.067,-0.063,-0.0481,-0.0452,-0.0577,-0.019
"NC1(C(=O)N[C@@H](CCO)c2ccc(Cl)cc2)CCN(c2ncnc3[nH]ccc23)CC1 [Capivasertib] + Cn1cnc2c(F)c(Nc3ccc(Br)cc3Cl)c(C(=O)NOCCO)cc21 [Selumetinib] (first compound max 10 µM, 7x7, partner max 10 µM)",0.0588,0.0217,-0.0343,0.0038,-0.0424,0.0307,0.0081,-0.0321,-0.0896,-0.0072,-0.0073,0.0293,0.0623,0.0295,-0.0436,-0.0313,0.0367,0.0602,0.0297,-0.0293
"CN(C)CCCOc1ccc(-c2ccc3ncc4c(c3c2)n(C2CCOCC2)c(=O)n4C)cn1 [AZD0156] + CCN(CCO)CCCOc1ccc2c(Nc3cc(CC(=O)Nc4cccc(F)c4)[nH]n3)ncnc2c1 [AZD2811] (first compound max 1 µM, 7x7, partner max 1 µM)",0.0015,0.0352,-0.0036,-0.0112,0.0304,-0.0376,-0.0087,-0.0225,-0.0159,-0.0186,0.0006,-0.0175,-0.0321,-0.0132,-0.05,-0.0823,0.0016,0.0518,0.0035,-0.0131
"COc1cccc2c1C(=O)c1c(O)c3c(c(O)c1C2=O)C[C@@](O)(C(=O)CO)C[C@@H]3O[C@H]1C[C@H](N)[C@H](O)[C@H](C)O1 [Doxorubicin] + Cc1cc2ncnn2cc1Nc1ncc2c(n1)n(C1CCOCC1)c(=O)n2C [AZD7648] (first compound max 1 µM, 7x7, partner max 10 µM)",0.002,0.0824,-0.003,0.0914,-0.0391,0.027,0.0907,-0.0523,-0.0314,0.0837,0.0271,0.138,0.0258,0.104,-0.0383,0.0011,-0.0064,0.193,0.122,-0.0137
"CC(=O)c1c(C)c2cnc(Nc3ccc(N4CCNCC4)cn3)nc2n(C2CCCC2)c1=O [Palbociclib] + CC1(C)CCC(CN2CCN(c3ccc(C(=O)NS(=O)(=O)c4ccc(NCC5CCOCC5)c([N+](=O)[O-])c4)c(Oc4cnc5[nH]ccc5c4)c3)CC2)=C(c2ccc(Cl)cc2)C1 [Venetoclax] (first compound max 10 µM, 7x7, partner max 1 µM)",-0.0357,-0.0899,-0.0614,0.0322,-0.0455,-0.019,0.0148,-0.0312,-0.0601,-0.0392,-0.0465,0.0241,0.011,0.0337,-0.0608,-0.0553,0.0133,-0.0632,-0.0363,-0.0265
"NC1(C(=O)N[C@@H](CCO)c2ccc(Cl)cc2)CCN(c2ncnc3[nH]ccc23)CC1 [Capivasertib] + C[C@@H]1COCCN1C2=NC(=NC(=C2)C3(CC3)[S@](=N)(=O)C)C4=C5C=CNC5=NC=C4 [AZD6738] (first compound max 10 µM, 7x7, partner max 10 µM)",-0.0329,-0.0774,-0.0262,-0.0777,-0.0579,-0.0933,-0.0346,-0.11,-0.0294,-0.0693,-0.0691,-0.0362,-0.0522,-0.0244,-0.0265,-0.0159,-0.0803,-0.0323,-0.0324,-0.0164
"COc1nnc2ccc(N3CCC(c4ccc(OCCN5CCN(C)C(=O)[C@H]5C)cc4)CC3)nn12 [AZD5153] + C[C@@H]1COCCN1C2=NC(=NC(=C2)C3(CC3)[S@](=N)(=O)C)C4=C5C=CNC5=NC=C4 [AZD6738] (first compound max 1 µM, 7x7, partner max 10 µM)",-0.0569,-0.0011,-0.0231,-0.0567,-0.104,0.0257,-0.0181,0.0085,0.0386,-0.0398,-0.0358,0.0406,-0.0247,0.0198,0.036,-0.0249,0.0017,-0.0364,0.0588,-0.0831
"Cc1c2c(nn1C)CSCc1cc(n(C)n1)CSc1cc(c3ccccc3c1)OCCCc1c(C(=O)O)n(C)c3c-2c(Cl)ccc13 [AZD5991] + C1CN(CCC1(C(=O)N[C@@H](CCO)C2=CC=C(C=C2)Cl)N)C3=NC=NC4=C3C=CN4 [Capivasertib] (first compound max 1 µM, 7x7, partner max 3 µM)",0.0092,-0.0081,-0.0411,0.0106,-0.0013,-0.0072,-0.0539,0.0122,0.0258,0.0807,0.0065,0.0369,0.0471,0.0186,-0.0499,0.0139,0.0001,-0.0525,0.0568,-0.0186
"CC1(C)CCC(CN2CCN(c3ccc(C(=O)NS(=O)(=O)c4ccc(NCC5CCOCC5)c([N+](=O)[O-])c4)c(Oc4cnc5[nH]ccc5c4)c3)CC2)=C(c2ccc(Cl)cc2)C1 [Venetoclax] + COc1cc(Nc2ncc3c(n2)-c2ccc(Cl)cc2C(c2c(F)cccc2OC)=NC3)ccc1C(=O)O [Alisertib] (first compound max 1 µM, 7x7, partner max 10 µM)",0.238,0.0154,-0.0153,-0.0071,-0.0103,-0.0379,0.0079,-0.0154,0.0308,0.0069,-0.0084,0.346,0.045,-0.0281,-0.0371,-0.0536,0.0892,0.0475,0.0315,0.0207
"COc1cc2ncnc(Nc3ccc(F)c(Cl)c3)c2cc1OCCCN1CCOCC1 [Gefitinib] + CC(C)n1c(=O)n(C)c2cnc3cc(F)c(-c4ccc(OCCCN5CCCCC5)nc4)cc3c21 [AZD1390] (first compound max 10 µM, 7x7, partner max 0.3 µM)",-0.0472,-0.0252,-0.0395,-0.0556,-0.0192,-0.0696,-0.0649,-0.0756,-0.0772,-0.0515,-0.038,-0.056,-0.0268,-0.0854,-0.0685,-0.0468,-0.0454,-0.0857,-0.0407,-0.0267
"CC(=O)Nc1cccc(-n2c(=O)n(C3CC3)c(=O)c3c(Nc4ccc(I)cc4F)n(C)c(=O)c(C)c32)c1 [Trametinib] + Cc1nc(-c2cn3c(n2)-c2ccc(-c4cnn(C(C)(C)C(N)=O)c4)cc2OCC3)n(C(C)C)n1 [Taselisib] (first compound max 1 µM, 7x7, partner max 10 µM)",0.171,0.0426,-0.0034,0.168,0.0489,0.047,0.15,0.0402,0.0177,0.0424,0.182,0.0426,0.144,0.115,0.0039,0.0922,0.0378,0.118,0.076,0.0386
